# According to PMC7663645 (Molecules, 2020):
# Target: T1, MAO-B (Rattus norvegicus, UniProt P19643)
# T1 construct: from tissue; host or cells: rat brain (membrane homogenates)
# T1 sequence (P19643 1-520): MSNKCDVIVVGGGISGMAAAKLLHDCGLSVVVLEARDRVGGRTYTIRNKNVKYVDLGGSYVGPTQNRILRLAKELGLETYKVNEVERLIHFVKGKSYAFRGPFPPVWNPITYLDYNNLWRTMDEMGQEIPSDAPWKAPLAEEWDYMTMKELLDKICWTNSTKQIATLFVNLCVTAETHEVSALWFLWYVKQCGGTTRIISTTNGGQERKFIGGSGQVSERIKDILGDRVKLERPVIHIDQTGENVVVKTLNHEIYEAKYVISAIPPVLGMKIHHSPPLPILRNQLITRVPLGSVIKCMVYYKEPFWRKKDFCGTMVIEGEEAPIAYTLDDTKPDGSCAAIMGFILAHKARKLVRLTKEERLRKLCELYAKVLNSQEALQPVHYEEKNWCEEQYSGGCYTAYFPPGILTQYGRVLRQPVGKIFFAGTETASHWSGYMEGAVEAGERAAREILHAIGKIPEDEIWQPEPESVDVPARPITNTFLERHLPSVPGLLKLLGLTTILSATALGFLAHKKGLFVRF
# Assay: Radioligand competition binding assay with L-[^3H]Deprenyl on rat brain membrane homogenates
# Details: homologous binding experiments, rat brain homogenates
# Procedure: The affinity of the synthesized derivatives towards MAO-B was determined in radioligand competition binding assays. […] Non-specific binding was determined in the presence of 10 μM of rasagiline. The reaction was terminated by rapid filtration using Whatman GF/B glass-fiber filters, pre-soaked in 0.3% polyethyleneimine, and a 48-channel harvester (Biomedical Research and Development Laboratories, Gaithersburg, MD, USA) followed by washing four times with ice-cold TRIS-HCl buffer. Filter-bound radioactivity was quantified by liquid scintillation counting. The results represent two single experiments, each performed in triplicate. […] The data were analyzed with GraphPad Prism, Version 4.1 (GraphPad Inc., La Jolla, CA, USA).
row,Molecule,Bmax
1,L-[^3H]Deprenyl [reference compound],2.29 ± 2.08 pmol/mg protein

# Same assay, conditions: read-out: IC50 (MAO-B binding affinity)
row,Molecule,IC50
1,"Fc1ccc(N2CCN(CC=Cc3ccccc3)CC2)cn1 [Compound 10, 1-Cinnamyl-4-(6-fluoropyridin-3-yl)piperazine]",> 10 µM
2,"Fc1ncccc1N1CCN(CC=Cc2ccccc2)CC1 [Compound 12, 1-Cinnamyl-4-(2-fluoropyridin-3-yl)piperazine]",> 10 µM
3,"O=C(c1ccc(F)cc1)N1CCN(C/C=C/c2ccccc2F)CC1 [Compound 13, (E)-(4-Fluorophenyl)(4-(3-(2-fluorophenyl)allyl)piperazin-1-yl)methanone]",> 10 µM
4,"Fc1cc(N2CCN(C/C=C/c3ccccc3F)CC2)ccn1 [Compound 16, (E)-1-(3-(2-Fluorophenyl)allyl)-4-(2-fluoropyridin-4-yl)piperazine]",> 10 µM
5,"Fc1ccccc1/C=C/CN1CCN(c2cccnc2F)CC1 [Compound 17, (E)-1-(3-(2-Fluorophenyl)allyl)-4-(2-fluoropyridin-3-yl)piperazine]",> 10 µM

# Next, values leading:
row,IC50,Molecule
1,> 10 µM,"O=C(c1ccc(F)cc1)N1CCN(C/C=C/c2ccccc2)CC1 [Compound 8, (E)-(4-cinnamylpiperazin-1-yl)(4-fluorophenyl)methanone]"
2,> 10 µM,"Fc1cccc(N2CCN(CC=Cc3ccccc3)CC2)n1 [Compound 9, 1-Cinnamyl-4-(6-fluoropyridin-2-yl)piperazine]"
3,> 10 µM,"Fc1cc(N2CCN(CC=Cc3ccccc3)CC2)ccn1 [Compound 11, 1-Cinnamyl-4-(2-fluoropyridin-4-yl)piperazine]"
4,> 10 µM,"Fc1cccc(N2CCN(C/C=C/c3ccccc3F)CC2)n1 [Compound 14, (E)-1-(3-(2-Fluorophenyl)allyl)-4-(6-fluoropyridin-2-yl)piperazine]"
5,> 10 µM,"Fc1ccc(N2CCN(C/C=C/c3ccccc3F)CC2)cn1 [Compound 15, (E)-1-(3-(2-Fluorophenyl)allyl)-4-(6-fluoropyridin-3-yl)piperazine]"

# System: MAO-B
# Assay: not given
# Set-up: method as in PMID 31060887
# Details: cited from earlier work
row,Molecule,IC50
1,COC[C@@H]1CN(c2noc3cc(OCCCCC[18F])ccc23)C(=O)O1 [[^18F]6],0.11 µM

# System: recombinant human MAO-B
# Assay: not given
# Set-up: method as in earlier work
# Details: cited from earlier work
row,Molecule,IC50
1,L-[^18F]Deprenyl,0.227 ± 0.0368 µM
